Assay results from patent US11224601B1, “Compounds that inhibits MCL-1 protein” (priority 2017, dated 2022).
Read-outs that look alike come from different tables or passages of the source.

Key:
[1] = target: recombinant human Mcl-1 (Mcl-1/Bim interaction) (Homo sapiens (Human), UniProt Q07820); experiment: biochemical; assay type: binding; conditions: cell free Mcl-1:Bim TR-FRET; read-out: Mcl-1 HTRF IC50
Procedure: Cell free Mcl-1:Bim Affinity Assay (Mcl-1 HTRF)
The inhibition of the Mcl-1/Bim interaction was measured using a time-resolved fluorescence resonance energy transfer (TR-FRET) assay. The recombinant human Mcl-1 (C-terminally 6×His tagged Mcl-1 containing residues 171-327) was generated at Amgen Inc (Thousand Oaks, Calif.). A biotinylated peptide derived from human Bim (residues 51-76) was purchased from CPC Scientific (San Jose, Calif.). The TR-FRET assay was conducted in a 384-well white OptiPlate™ (PerkinElmer, Waltham, Mass.) in a total volume of 40 μL. The reaction mixture contained 0.1 nM Mcl-1(171-327), 0.05 nM biotin-Bim(51-76), 0.05 nM LANCE® Eu-W1024 Anti-6×His (PerkinElmer), 0.072 nM Streptavidin-Xlent (Cisbio, Bedford, Mass.), and serially diluted test compounds in the binding buffer of 20 mM Hepes, pH 7.5, 150 mM NaCl, 0.016 mM Brij® 35, and 1 mM dithiothreitol. Test compounds were pre-incubated with Mcl-1(171-327) and biotin-Bim (51-76) for 60 min before addition of the detection mixture (LANCE® Eu-W1024 Anti-6×His and Streptavidin-Xlent). The reaction plates were further incubated overnight and then were read on an Envision® multimode reader (PerkinElmer). Fluorescence signals were measured at 620 nm (40-nm bandwidth) and 665 nm (7.5-nm bandwidth) with a 60 μs delay after excitation at 320 nm (75-nm bandwidth). The signal ratio at 665/620 nm corresponded to the Mcl-1/Bim interaction and was used in all data analyses. The IC50 values of test compounds were determined from duplicate data by analyzing competition curves using a four-parameter sigmoidal model in GraphPad Prism (GraphPad Software, San Diego, Calif.) or in Genedata Screener® (Genedata, Basel, Switzerland).

[2] = test system: OPM-2 human multiple myeloma cell line; experiment: Cell Viability Assay (OPM-2 10 FBS), CellTiter-Glo; assay type: cell-based
Procedure: Cell Viability Assay (OPM-2 10 FBS)
The human multiple myeloma cell line, OPM-2, was cultured in complete growth medium containing RPMI 1640 and 10% fetal bovine serum (FBS). Cells were seeded into 384-well plates at 3000 cells/well density in complete growth medium containing 10% FBS, and incubated for 16 h with serially diluted test compounds in a 37° C. incubator with 5% CO2. Cell viability was tested using CellTiter-Glo® assay (Promega, Madison, Wis.) according to the manufacturer recommendations. Luminescence was determined using an EnVision® Multilabel plate reader 25 min after the addition of detection reagent. IC50 values were then calculated with Xlfit using a logistical 4-parameter fit model in GraphPad Prism (GraphPad Software, San Diego, Calif.) or in Genedata Screener® (Genedata, Basel, Switzerland).

[3] = Homo sapiens, OPM-2, 16 h, read-out: OPM-2 10% FBS IC50 IP (μM), OPM-2 cells, 10% FBS, 16 h, CellTiter-Glo

recombinant human Mcl-1 (Mcl-1/Bim interaction), sequence (Q07820 171-327): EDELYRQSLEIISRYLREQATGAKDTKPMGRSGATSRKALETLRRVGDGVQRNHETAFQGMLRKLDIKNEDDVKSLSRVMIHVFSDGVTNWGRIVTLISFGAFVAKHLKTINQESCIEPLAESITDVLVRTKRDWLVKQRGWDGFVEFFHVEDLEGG

Row | Compound | IC50 [1] | IC50 [2, 3] | IC50 ([2]; read-out: OPM-2 10% FBS IC50 IP, OPM-2 cells, 10% FBS, 16 h, CellTiter-Glo)
1 | CO[C@@]1(CN2CCN3CCCC[C@@H]3C2)/C=C/C[C@H](C)[C@@H](Cc2ccccc2)S(=O)(=O)NC(=O)c2ccc3c(c2)N(C[C@@H]2CC[C@H]21)C[C@@]1(CCCc2cc(Cl)ccc21)CO3 (single isomer, unassigned) [Example 104] | 1.12 nM | 0.782 µM | 
2 | CO[C@@]1(CN2CCN3CCN(C)CC3C2)/C=C/C[C@H](C)[C@@H](C)S(=O)(=O)NC(=O)c2ccc3c(c2)N(C[C@@H]2CC[C@H]21)C[C@@]1(CCCc2cc(Cl)ccc21)CO3 (single isomer, unassigned) [Example 216] | 0.49 nM | 0.183 µM | 
3 | CO[C@@]1(CN2CCN3CCC[C@@H]3C2)/C=C/C[C@H](C)[C@@H](C)S(=O)(=O)NC(=O)c2ccc3c(c2)N(C[C@@H]2CC[C@H]21)C[C@@]1(CCCc2cc(Cl)ccc21)CO3 (stereo in doubt) [Example 80] | 1.55 nM | 0.205 µM | 
4 | CO[C@]1(CN2CCN3CCCCC[C@@H]3C2)/C=C/C[C@H](C)[C@@H](C)S(=O)(=O)NC(=O)c2ccc3c(c2)N(C[C@@H]2CC[C@H]21)C[C@@]1(CCCc2cc(Cl)ccc21)CO3 (stereo in doubt) [Example 87] | 0.127 nM | 0.141 µM | 
5 | CO[C@]1(CN2CCN3CCN(C(C)=O)C[C@@H]3C2)/C=C/C[C@H](C)[C@@H](C)S(=O)(=O)NC(=O)c2ccc3c(c2)N(C[C@@H]2CC[C@H]21)C[C@@]1(CCCc2cc(Cl)ccc21)CO3 (stereo in doubt) [Example 218] | 0.142 nM | 0.092 µM | 
6 | CO[C@@]1(CN2CCN([C@H]3CCOC3)CC2)/C=C/C[C@H](C)[C@@H](C)S(=O)(=O)NC(=O)c2ccc3c(c2)N(C[C@@H]2CC[C@H]21)C[C@@]1(CCCc2cc(Cl)ccc21)CO3 (stereo in doubt) [Example 275] | 0.176 nM | 0.082 µM | 
7 | CO[C@]1(CN2CCN3CC[C@H](F)C[C@@H]3C2)/C=C/C[C@H](C)[C@@H](C)S(=O)(=O)NC(=O)c2ccc3c(c2)N(C[C@@H]2CC[C@H]21)C[C@@]1(CCCc2cc(Cl)ccc21)CO3 (stereo in doubt) [Example 293] | 0.242 nM |  | 0.207 µM
8 | CCO[C@]1(CN2CCN(C(C)C)[C@H](C)C2)/C=C/C[C@H](C)[C@@H](C)S(=O)(=O)NC(=O)c2ccc3c(c2)N(C[C@@H]2CC[C@H]21)C[C@@]1(CCCc2cc(Cl)ccc21)CO3 [Example 9, (1S,3′R,6′R,7′R,8′E,11′S,12′R)-6-chloro-7′-ethoxy-11′,12′-dimethyl-7′-(((3R)-3-methyl-4-(1-methylethyl)-1-piperazinyl)methyl)-3,4-dihydro-2H,15′H-spiro[naphthalene-1,22′-[20]oxa[13]thia[1,14]diazatetracyclo[14.7.2.0˜3,6˜.0˜19,24˜]pentacosa[8,16,18,24]tetraen]-15′-one 13′,13′-dioxide] | 0.078 nM | 0.05 µM | 
9 | CCO[C@]1(CN2CCN(C(C)C)[C@H](C)C2)/C=C/C[C@H](C)[C@@H](CCOC)S(=O)(=O)NC(=O)c2ccc3c(c2)N(C[C@@H]2CC[C@H]21)C[C@@]1(CCCc2cc(Cl)ccc21)CO3 [Example 17, (1S,3′R,6′R,7′R,8′E,11′S,12′R)-6-chloro-7′-ethoxy-12′-(2-methoxyethyl)-11′-methyl-7′-(((3R)-3-methyl-4-(1-methylethyl)-1-piperazinyl)methyl)-3,4-dihydro-2H,15′H-spiro[naphthalene-1,22′-[20]oxa[13]thia[1,14]diazatetracyclo[14.7.2.0˜3,6˜.0˜19,24˜]pentacosa[8,16,18,24]tetraen]-15′-one 13′,13′-dioxide] | 0.073 nM | 0.034 µM | 
10 | COCC[C@@H]1[C@@H](C)C/C=C/[C@](CN2CCN3CCOC[C@@H]3C2)(OC)[C@@H]2CC[C@H]2CN2C[C@@]3(CCCc4cc(Cl)ccc43)COc3ccc(nc32)C(=O)NS1(=O)=O [Example 20, (1S,3′R,6′R,7′S,8′E,11′S,12′R)-6-chloro-7′-((9aS)-hexahydropyrazino[2,1-c][1,4]oxazin-8(1H)-ylmethyl)-7′-methoxy-12′-(2-methoxyethyl)-11′-methyl-3,4-dihydro-2H,15′H-spiro[naphthalene-1,22′-[20]oxa[13]thia[1,14,25]triazatetracyclo[14.7.2.0˜3,6˜.0˜19,24˜]pentacosa[8,16,18,24]tetraen]-15′-one 13′,13′-dioxide] | 0.082 nM | 0.022 µM | 
11 | COCCO[C@@]1(CN2CCN3CCCC[C@@H]3C2)/C=C/C[C@H](C)[C@@H](C)S(=O)(=O)NC(=O)c2ccc3c(c2)N(C[C@@H]2CC[C@H]21)C[C@@]1(CCCc2cc(Cl)ccc21)CO3 [Example 151, (1S,3′R,6′R,7′S,8′E,11′S,12′R)-6-chloro-7′-(2-methoxyethoxy)-11′,12′-dimethyl-7′-((9aR)-octahydro-2H-pyrido[1,2-a]pyrazin-2-ylmethyl)-3,4-dihydro-2H,15′H-spiro[naphthalene-1,22′-[20]oxa[13]thia[1,14]diazatetracyclo[14.7.2.0˜3,6˜.0˜19,24˜]pentacosa[8,16,18,24]tetraen]-15′-one 13′,13′-dioxide] | 0.843 nM | 0.462 µM | 
12 | CO[C@@]1(C(=O)N(C)C)/C=C/C[C@H](C)[C@@H](C)S(=O)(=O)NC(=O)c2ccc3c(c2)N(C[C@@H]2CC[C@H]21)C[C@@]1(CCCc2cc(Cl)ccc21)CO3 [Example 176, (1S,3′R,6′R,7′S,8′E,11′S,12′R)-6-chloro-7′-methoxy-N,N,11′,12′-tetramethyl-15′-oxo-3,4-dihydro-2H-spiro[naphthalene-1,22′-[20]oxa[13]thia[1,14]diazatetracyclo[14.7.2.0˜3,6˜.0˜19,24˜]pentacosa[8,16,18,24]tetraene]-7′-carboxamide 13′,13′-dioxide] | 0.118 nM | 0.149 µM | 
13 | CO[C@]1(C(=O)N(C)C)/C=C/C[C@H](C)[C@@H](C)S(=O)(=O)NC(=O)c2ccc3c(c2)N(C[C@@H]2CC[C@H]21)C[C@@]1(CCCc2cc(Cl)ccc21)CO3 [Example 177, (1S,3′R,6′R,7′R,8′E,11′S,12′R)-6-chloro-7′-methoxy-N,N,11′,12′-tetramethyl-15′-oxo-3,4-dihydro-2H-spiro[naphthalene-1,22′-[20]oxa[13]thia[1,14]diazatetracyclo[14.7.2.0˜3,6˜.0˜19,24˜]pentacosa[8,16,18,24]tetraene]-7′-carboxamide 13′,13′-dioxide] | 0.153 nM | 0.615 µM | 
14 | C[C@@H]1[C@@H](C)C/C=C/[C@@](O)(CN2CCN3CCOC[C@@H]3C2)[C@@H]2CC[C@H]2CN2C[C@@]3(CCCc4cc(Cl)ccc43)COc3ccc(cc32)C(=O)NS1(=O)=O [Example 193, (1S,3′R,6′R,7′S,8′E,11′S,12′R)-6-chloro-7′-((9aS)-hexahydropyrazino[2,1-c][1,4]oxazin-8(1H)-ylmethyl)-7′-hydroxy-11′,12′-dimethyl-3,4-dihydro-2H,15′H-spiro[naphthalene-1,22′-[20]oxa[13]thia[1,14]diazatetracyclo[14.7.2.0˜3,6˜.0˜19,24˜]pentacosa[8,16,18,24]tetraen]-15′-one 13′,13′-dioxide] | 0.096 nM | 0.023 µM | 
15 | C[C@@H]1[C@@H](C)C/C=C/[C@](O)(CN2CCN3CCOC[C@@H]3C2)[C@@H]2CC[C@H]2CN2C[C@@]3(CCCc4cc(Cl)ccc43)COc3ccc(cc32)C(=O)NS1(=O)=O [Example 213, (1S,3′R,6′R,7′R,8′E,11′S,12′R)-6-chloro-7′-((9aS)-hexahydropyrazino[2,1-c][1,4]oxazin-8(1H)-ylmethyl)-7′-hydroxy-11′,12′-dimethyl-3,4-dihydro-2H,15′H-spiro[naphthalene-1,22′-[20]oxa[13]thia[1,14]diazatetracyclo[14.7.2.0˜3,6˜.0˜19,24˜]pentacosa[8,16,18,24]tetraen]-15′-one 13′,13′-dioxide] | 0.239 nM | 0.4 µM | 
16 | CC(C)CO[C@@]1(CN2CCN(C3COC3)CC2)/C=C/C[C@H](C)[C@@H](C)S(=O)(=O)NC(=O)c2ccc3c(c2)N(C[C@@H]2CC[C@H]21)C[C@@]1(CCCc2cc(Cl)ccc21)CO3 [Example 348, (1S,3′R,6′R,7′S,8′E,11′S,12′R)-6-chloro-11′,12′-dimethyl-7′-(2-methylpropoxy)-7′-((4-(3-oxetanyl)-1-piperazinyl)methyl)-3,4-dihydro-2H,15′H-spiro[naphthalene-1,22′-[20]oxa[13]thia[1,14]diazatetracyclo[14.7.2.0˜3,6˜.0˜19,24˜]pentacosa[8,16,18,24]tetraen]-15′-one 13′,13′-dioxide] | 2.62 nM | 5.36 µM | 
17 | CO[C@]1(CN2CCN3CCCC[C@@H]3C2)/C=C/C[C@H](C)[C@@H](CCO)S(=O)(=O)NC(=O)c2ccc3c(c2)N(C[C@@H]2CC[C@H]21)C[C@@]1(CCCc2cc(Cl)ccc21)CO3 [Example 358, (1S,3′R,6′R,7′R,8′E,11′S,12′R)-6-chloro-12′-(2-hydroxyethyl)-7′-methoxy-11′-methyl-7′-((9aR)-octahydro-2H-pyrido[1,2-a]pyrazin-2-ylmethyl)-3,4-dihydro-2H,15′H-spiro[naphthalene-1,22′-[20]oxa[13]thia[1,14]diazatetracyclo[14.7.2.0˜3,6˜.0˜19,24˜]pentacosa[8,16,18,24]tetraen]-15′-one 13′,13′-dioxide] | 0.066 nM | 0.144 µM | 
